Legend:
[1] = target: Bone morphogenetic protein receptor type-1A (Homo sapiens) (UniProt P36894); assay: Inhibition of human ALK3 at 100 nM using casein as substrate by [gamma-33P]-ATP assay
[2] = target: Dual specificity protein kinase CLK1 (Homo sapiens) (UniProt P49759); assay: Inhibition of human CLK1 at 100 nM using MBP as substrate by [gamma-33P]-ATP assay
[3] = target: MAP/microtubule affinity-regulating kinase 4 (Homo sapiens) (UniProt Q96L34); assay: Inhibition of human MARK4 at 100 nM using KKKVSRSGLYRSPSMPENLNRPR as substrate by [gamma-33P]-ATP assay
[4] = target: CDK4/Cyclin D3 (Homo sapiens) (UniProt P11802+P30281); assay: Inhibition of human CDK4/cyclin-D3 at 100 nM using RB-CTF as substrate by [gamma-33P]-ATP assay; assay type: protein-complex assay
[5] = target: Eukaryotic translation initiation factor 2-alpha kinase 1 (Homo sapiens) (UniProt Q9BQI3); assay: Inhibition of human EIF2AK1 at 100 nM using MBP as substrate by [gamma-33P]-ATP assay
[6] = target: Serine/threonine-protein kinase pim-2 (Homo sapiens) (UniProt Q9P1W9); assay: Inhibition of human PIM2 at 100 nM using RSRHSSYPAGT as substrate by [gamma-33P]-ATP assay
[7] = target: CDK9/Cyclin K (Homo sapiens) (UniProt P50750+O75909); assay: Inhibition of human CDK9/cyclin-K at 100 nM using KTFCGTPEYLAPEVRREPRILSEEEQEMFRDFDYIADWC as substrate by [gamma-33P]-ATP assay; assay type: protein-complex assay
[8] = target: Mitogen-activated protein kinase 15 (Homo sapiens) (UniProt Q8TD08); assay: Inhibition of human ERK7 at 100 nM using MBP as substrate by [gamma-33P]-ATP assay
[9] = target: cAMP-dependent protein kinase catalytic subunit alpha (Homo sapiens) (UniProt P17612); assay: Inhibition of human PKA at 100 nM using LCGRTGRRNSI as substrate by [gamma-33P]-ATP assay
[10] = target: Casein kinase I isoform epsilon (Homo sapiens) (UniProt P49674); assay: Inhibition of human CK1E at 100 nM using KRRRAL[pS]VASLPGL as substrate by [gamma-33P]-ATP assay
[11] = target: Serine/threonine-protein kinase Nek6 (Homo sapiens) (UniProt Q9HC98); assay: Inhibition of human NEK6 at 100 nM using casein as substrate by [gamma-33P]-ATP assay
[12] = target: Platelet-derived growth factor receptor alpha (Homo sapiens) (UniProt P16234); assay: Inhibition of human PDGFRalpha at 100 nM using poly[Glu:Tyr] (4:1) as substrate by [gamma-33P]-ATP assay
[13] = target: MAP kinase-activated protein kinase 3 (Homo sapiens) (UniProt Q16644); assay: Inhibition of human MAPKAPK3 at 100 nM using KKLNRTLSVA as substrate by [gamma-33P]-ATP assay
[14] = target: Vascular endothelial growth factor receptor 3 (Homo sapiens) (UniProt P35916); assay: Inhibition of human FLT4 at 100 nM using poly[Glu:Tyr] (4:1) as substrate by [gamma-33P]-ATP assay
[15] = target: Tyrosine-protein kinase CSK (Homo sapiens) (UniProt P41240); assay: Inhibition of human CSK at 100 nM using poly[Glu:Tyr] (4:1) as substrate by [gamma-33P]-ATP assay
[16] = target: G protein-coupled receptor kinase 4 (Homo sapiens) (UniProt P32298); assay: Inhibition of human GRK4 at 100 nM using casein as substrate by [gamma-33P]-ATP assay
HeLa = assay: Inhibition of colony formation in human HeLa cells at 1.25 uM incubated for 2 weeks crystal violet staining based assay; assay type: functional; details: 336 h
[17] = target: Tyrosine-protein kinase Srms (Homo sapiens) (UniProt Q9H3Y6); assay: Inhibition of human SRMS at 100 nM using poly[Glu:Tyr] (4:1) as substrate by [gamma-33P]-ATP assay
[18] = target: Tyrosine-protein kinase Fyn (Homo sapiens) (UniProt P06241); assay: Inhibition of human FYN at 100 nM using poly[Glu:Tyr] (4:1) as substrate by [gamma-33P]-ATP assay
[19] = target: Angiopoietin-1 receptor (Homo sapiens) (UniProt Q02763); assay: Inhibition of human TIE2 at 100 nM using poly[Glu:Tyr] (4:1) as substrate by [gamma-33P]-ATP assay
[20] = target: Proto-oncogene tyrosine-protein kinase ROS (Homo sapiens) (UniProt P08922); assay: Inhibition of human ROS at 100 nM using KKKSPGEYVNIEFG as substrate by [gamma-33P]-ATP assay
[21] = target: Serine/threonine-protein kinase 38 (Homo sapiens) (UniProt Q15208); assay: Inhibition of human STK38 at 100 nM using KKRNRRLSVA as substrate by [gamma-33P]-ATP assay
[22] = target: Serine/threonine-protein kinase Nek9 (Homo sapiens) (UniProt Q8TD19); assay: Inhibition of human NEK9 at 100 nM using casein as substrate by [gamma-33P]-ATP assay
[23] = target: Receptor-type tyrosine-protein kinase FLT3 (Homo sapiens) (UniProt P36888); assay: Inhibition of human FLT3 at 100 nM using EAIYAAPFAKKK as substrate by [gamma-33P]-ATP assay
[24] = target: CDK3/Cyclin E (Homo sapiens) (UniProt P24864+Q00526); assay: Inhibition of human CDK3/cyclin-E at 100 nM using histone H1 as substrate by [gamma-33P]-ATP assay; assay type: protein-complex assay
[25] = target: Serine/threonine-protein kinase Nek3 (Homo sapiens) (UniProt P51956); assay: Inhibition of human NEK3 at 100 nM using MBP as substrate by [gamma-33P]-ATP assay
[26] = target: Muscle, skeletal receptor tyrosine-protein kinase (Homo sapiens) (UniProt O15146); assay: Inhibition of human MUSK at 100 nM using MBP as substrate by [gamma-33P]-ATP assay
[27] = target: Receptor-interacting serine/threonine-protein kinase 2 (Homo sapiens) (UniProt O43353); assay: Inhibition of human RIPK2 at 100 nM using MBP as substrate by [gamma-33P]-ATP assay
[28] = target: Cyclin-dependent kinase 1/cyclin B1 (Homo sapiens) (UniProt P06493+P14635); assay: Inhibition of human CDK1/cyclinB at 100 nM using Histone H1 as substrate by [gamma-33P]-ATP assay; assay type: protein-complex assay
[29] = target: Serine/threonine-protein kinase 3 (Homo sapiens) (UniProt Q13188); assay: Inhibition of human MST2 at 100 nM using MBP as substrate by [gamma-33P]-ATP assay
[30] = target: Protein kinase C beta type (Homo sapiens) (UniProt P05771); assay: Inhibition of human PKCb1 at 100 nM using Histone H1 as substrate by [gamma-33P]-ATP assay

Sequence of Platelet-derived growth factor receptor alpha (Homo sapiens) (P16234 whole entry): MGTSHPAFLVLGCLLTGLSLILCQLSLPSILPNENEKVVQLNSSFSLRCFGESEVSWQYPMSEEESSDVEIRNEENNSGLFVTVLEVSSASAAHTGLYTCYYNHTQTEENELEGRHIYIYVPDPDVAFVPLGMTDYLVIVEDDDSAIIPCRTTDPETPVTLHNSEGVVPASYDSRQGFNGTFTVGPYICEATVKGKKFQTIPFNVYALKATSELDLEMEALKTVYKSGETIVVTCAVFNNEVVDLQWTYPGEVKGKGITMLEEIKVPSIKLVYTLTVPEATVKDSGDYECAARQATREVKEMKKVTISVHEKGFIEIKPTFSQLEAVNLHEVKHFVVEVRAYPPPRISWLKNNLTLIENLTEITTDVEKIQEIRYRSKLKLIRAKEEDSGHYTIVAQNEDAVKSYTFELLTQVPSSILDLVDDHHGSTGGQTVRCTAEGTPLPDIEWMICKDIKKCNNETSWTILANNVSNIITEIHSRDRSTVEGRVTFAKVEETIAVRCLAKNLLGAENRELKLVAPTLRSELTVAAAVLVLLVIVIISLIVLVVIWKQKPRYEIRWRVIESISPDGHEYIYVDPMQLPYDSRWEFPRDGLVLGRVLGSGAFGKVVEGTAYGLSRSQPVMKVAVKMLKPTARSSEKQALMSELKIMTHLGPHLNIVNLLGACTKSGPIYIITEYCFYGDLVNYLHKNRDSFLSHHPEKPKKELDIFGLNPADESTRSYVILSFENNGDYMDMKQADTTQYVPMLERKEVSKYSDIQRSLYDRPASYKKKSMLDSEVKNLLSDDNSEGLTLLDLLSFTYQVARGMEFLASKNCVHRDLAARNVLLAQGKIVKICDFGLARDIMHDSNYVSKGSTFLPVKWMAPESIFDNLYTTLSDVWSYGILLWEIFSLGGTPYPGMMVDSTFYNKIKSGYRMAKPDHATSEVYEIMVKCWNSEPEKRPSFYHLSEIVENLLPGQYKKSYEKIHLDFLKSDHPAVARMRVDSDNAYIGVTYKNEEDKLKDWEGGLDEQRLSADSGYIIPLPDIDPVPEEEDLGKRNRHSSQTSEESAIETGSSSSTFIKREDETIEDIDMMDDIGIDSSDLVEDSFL
Sequence of MAP kinase-activated protein kinase 3 (Homo sapiens) (Q16644 whole entry, looked up): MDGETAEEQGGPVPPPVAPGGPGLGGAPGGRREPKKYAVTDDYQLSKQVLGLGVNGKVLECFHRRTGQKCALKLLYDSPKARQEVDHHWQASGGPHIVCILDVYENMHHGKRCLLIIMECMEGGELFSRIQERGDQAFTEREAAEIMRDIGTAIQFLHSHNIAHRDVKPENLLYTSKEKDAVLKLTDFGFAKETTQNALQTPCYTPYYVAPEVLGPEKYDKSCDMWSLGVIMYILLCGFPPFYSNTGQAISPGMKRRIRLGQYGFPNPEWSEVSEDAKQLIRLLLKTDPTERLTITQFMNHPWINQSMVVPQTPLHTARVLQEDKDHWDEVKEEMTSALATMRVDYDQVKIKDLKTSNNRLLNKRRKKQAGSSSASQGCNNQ
Sequence of Serine/threonine-protein kinase Nek3 (Homo sapiens) (P51956 whole entry): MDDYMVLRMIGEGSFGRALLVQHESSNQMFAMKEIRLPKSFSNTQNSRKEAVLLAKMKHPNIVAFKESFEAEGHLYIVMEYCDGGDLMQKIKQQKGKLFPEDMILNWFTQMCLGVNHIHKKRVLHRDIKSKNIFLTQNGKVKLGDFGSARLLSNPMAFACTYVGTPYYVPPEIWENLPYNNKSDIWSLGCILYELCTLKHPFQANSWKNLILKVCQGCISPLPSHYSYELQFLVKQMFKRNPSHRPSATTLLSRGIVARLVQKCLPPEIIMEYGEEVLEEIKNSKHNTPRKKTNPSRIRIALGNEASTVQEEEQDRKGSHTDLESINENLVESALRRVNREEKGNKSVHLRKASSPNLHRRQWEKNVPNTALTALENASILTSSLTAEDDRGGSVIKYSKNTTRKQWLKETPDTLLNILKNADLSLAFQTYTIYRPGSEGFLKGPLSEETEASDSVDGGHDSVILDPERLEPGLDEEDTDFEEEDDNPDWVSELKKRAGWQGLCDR
Sequence of Tyrosine-protein kinase CSK (Homo sapiens) (P41240 2-450 limits assumed): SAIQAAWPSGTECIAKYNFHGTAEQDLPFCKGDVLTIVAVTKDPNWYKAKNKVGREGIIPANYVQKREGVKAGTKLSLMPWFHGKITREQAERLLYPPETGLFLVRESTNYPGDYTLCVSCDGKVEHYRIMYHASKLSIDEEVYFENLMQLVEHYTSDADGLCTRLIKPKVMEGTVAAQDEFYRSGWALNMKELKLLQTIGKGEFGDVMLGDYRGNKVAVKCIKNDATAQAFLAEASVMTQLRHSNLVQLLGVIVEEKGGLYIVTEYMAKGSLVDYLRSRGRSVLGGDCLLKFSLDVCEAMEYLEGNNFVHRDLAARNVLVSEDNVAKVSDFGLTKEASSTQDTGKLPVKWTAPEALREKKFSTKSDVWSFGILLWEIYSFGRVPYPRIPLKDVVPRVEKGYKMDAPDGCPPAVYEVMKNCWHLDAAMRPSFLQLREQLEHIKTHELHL
Sequence of Serine/threonine-protein kinase 38 (Homo sapiens) (Q15208 2-465 limits assumed): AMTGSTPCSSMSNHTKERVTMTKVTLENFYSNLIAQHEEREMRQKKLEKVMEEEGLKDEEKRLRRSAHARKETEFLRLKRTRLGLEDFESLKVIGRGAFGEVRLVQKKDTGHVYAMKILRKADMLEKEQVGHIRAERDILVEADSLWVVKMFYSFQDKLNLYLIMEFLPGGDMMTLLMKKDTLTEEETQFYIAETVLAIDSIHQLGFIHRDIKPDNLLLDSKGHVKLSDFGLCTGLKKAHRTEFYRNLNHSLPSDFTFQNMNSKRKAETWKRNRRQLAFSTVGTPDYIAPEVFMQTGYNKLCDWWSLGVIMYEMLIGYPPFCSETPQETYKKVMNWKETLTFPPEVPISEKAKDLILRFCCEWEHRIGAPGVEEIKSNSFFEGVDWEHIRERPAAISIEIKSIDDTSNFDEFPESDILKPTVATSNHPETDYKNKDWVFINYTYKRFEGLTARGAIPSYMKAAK
Sequence of Eukaryotic translation initiation factor 2-alpha kinase 1 (Homo sapiens) (Q9BQI3 whole entry): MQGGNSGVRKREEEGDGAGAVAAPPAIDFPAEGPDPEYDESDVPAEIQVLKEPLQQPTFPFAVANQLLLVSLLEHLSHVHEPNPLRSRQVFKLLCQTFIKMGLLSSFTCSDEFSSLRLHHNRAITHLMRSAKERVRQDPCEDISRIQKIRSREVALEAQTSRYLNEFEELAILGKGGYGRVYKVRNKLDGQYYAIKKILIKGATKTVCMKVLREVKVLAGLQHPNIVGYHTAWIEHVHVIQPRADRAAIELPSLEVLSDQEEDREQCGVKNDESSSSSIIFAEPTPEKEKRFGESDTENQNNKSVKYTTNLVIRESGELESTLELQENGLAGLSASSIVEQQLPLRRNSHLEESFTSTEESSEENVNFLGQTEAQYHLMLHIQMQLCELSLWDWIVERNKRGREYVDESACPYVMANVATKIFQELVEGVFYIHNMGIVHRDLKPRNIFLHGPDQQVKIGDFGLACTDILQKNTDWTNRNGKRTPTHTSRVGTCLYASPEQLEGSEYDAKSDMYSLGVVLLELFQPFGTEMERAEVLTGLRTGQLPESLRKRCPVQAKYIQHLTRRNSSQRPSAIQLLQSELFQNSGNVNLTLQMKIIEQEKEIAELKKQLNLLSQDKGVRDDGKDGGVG
Sequence of Tyrosine-protein kinase Srms (Homo sapiens) (Q9H3Y6 whole entry): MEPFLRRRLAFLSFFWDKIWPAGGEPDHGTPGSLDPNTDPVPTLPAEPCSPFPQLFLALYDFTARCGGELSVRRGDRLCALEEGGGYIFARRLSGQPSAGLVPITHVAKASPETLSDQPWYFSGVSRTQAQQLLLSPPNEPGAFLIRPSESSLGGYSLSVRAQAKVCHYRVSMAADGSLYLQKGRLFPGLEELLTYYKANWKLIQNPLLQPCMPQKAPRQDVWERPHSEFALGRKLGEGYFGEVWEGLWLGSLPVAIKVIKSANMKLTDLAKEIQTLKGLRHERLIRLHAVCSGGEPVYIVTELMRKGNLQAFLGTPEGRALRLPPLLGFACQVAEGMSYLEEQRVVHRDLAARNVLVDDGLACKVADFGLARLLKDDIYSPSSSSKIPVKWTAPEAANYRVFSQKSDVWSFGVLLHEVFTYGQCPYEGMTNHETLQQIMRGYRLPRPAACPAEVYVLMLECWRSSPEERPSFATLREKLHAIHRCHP
Sequence of Receptor-interacting serine/threonine-protein kinase 2 (Homo sapiens) (O43353 whole entry): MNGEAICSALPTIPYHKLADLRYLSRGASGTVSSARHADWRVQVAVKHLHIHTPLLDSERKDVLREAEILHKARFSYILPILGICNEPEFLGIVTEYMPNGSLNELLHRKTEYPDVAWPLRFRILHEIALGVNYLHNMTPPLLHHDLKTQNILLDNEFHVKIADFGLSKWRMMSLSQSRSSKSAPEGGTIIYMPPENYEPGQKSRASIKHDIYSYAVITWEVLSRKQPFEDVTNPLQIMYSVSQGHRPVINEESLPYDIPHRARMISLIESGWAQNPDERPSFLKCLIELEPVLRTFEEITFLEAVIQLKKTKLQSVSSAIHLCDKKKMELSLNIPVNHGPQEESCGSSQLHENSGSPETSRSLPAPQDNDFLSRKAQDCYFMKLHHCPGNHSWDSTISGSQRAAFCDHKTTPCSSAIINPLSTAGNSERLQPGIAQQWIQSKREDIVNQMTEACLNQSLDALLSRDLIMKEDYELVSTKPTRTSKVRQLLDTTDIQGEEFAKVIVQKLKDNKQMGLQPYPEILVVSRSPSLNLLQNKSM
Sequence of Serine/threonine-protein kinase Nek6 (Homo sapiens) (Q9HC98 whole entry): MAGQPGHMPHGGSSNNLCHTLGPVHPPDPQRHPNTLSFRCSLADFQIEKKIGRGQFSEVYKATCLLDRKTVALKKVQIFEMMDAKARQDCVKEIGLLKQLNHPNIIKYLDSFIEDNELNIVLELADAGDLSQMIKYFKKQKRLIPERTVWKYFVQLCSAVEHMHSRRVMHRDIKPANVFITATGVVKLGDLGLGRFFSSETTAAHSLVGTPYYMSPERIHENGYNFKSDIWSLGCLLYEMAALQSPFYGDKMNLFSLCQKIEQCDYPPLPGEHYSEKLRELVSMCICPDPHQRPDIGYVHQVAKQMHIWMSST

COc1ccc(N2C(=O)COc3ccc(-c4cnc(OC)c(NS(=O)(=O)c5ccc(F)cc5)c4)cc32)cc1
inhibition [1]: 3.37% | inhibition [2]: 7.77% | inhibition [3]: 1.56% | inhibition [4]: -5.7% | inhibition [5]: 3.42% | inhibition [6]: 0.23% | inhibition [7]: 9.26% | inhibition [8]: -4.54% | inhibition [9]: 15.1% | inhibition [10]: 3.34% | inhibition [11]: -2.82% | inhibition [12]: -1.93% | inhibition [13]: 12.8% | inhibition [14]: -7.65% | inhibition [15]: 1% | inhibition [16]: 1.46% | inhibition at 1.25 µM (HeLa): > 50% | inhibition [17]: 14.2% | inhibition [18]: -0.86% | inhibition [19]: 8.06% | inhibition [20]: 15.3% | inhibition [21]: 4.17% | inhibition [22]: 10.4% | inhibition [23]: 16.6% | inhibition [24]: 2.71% | inhibition [25]: 10.8% | inhibition [26]: -3.79% | inhibition [27]: 14.2% | inhibition [28]: -2.84% | inhibition [29]: -8.9% | inhibition [30]: 7.83%
